This is an account of results in US10787456B2 (priority 2018, dated 2020).

Values after ≈ are worked out from the molar mass of the structure shown. Read-outs that look alike come from different tables or passages of the source. Some results are limits rather than exact numbers.

In one series the target is μ (MOR) opioid receptor (Homo sapiens, UniProt P35372). Kind of series: CNS receptor inhibition, Mu opioid receptor. The format is binding. How it is done: (§1) In an illustrative embodiment of the present invention, gliotoxin and Formula 1b, were evaluated for activity of various receptors. Turning to Table 1, inhibitory data is provided for various receptors found in the CNS, including H1 and opioid receptors μ (MOR), […], and κ (KOR). Inhibition data is provided as inhibitor constant, Ki, is the concentration required to produce half-maximum inhibition. This quantitative measure indicates how much of a particular drug or other substance (inhibitor) is needed to inhibit a given biological process (or component of a process, i.e. an enzyme, cell, cell receptor or microorganism) by half. The values are typically expressed as molar (micro- and nano-) concentrations.

A further series concerns the target σ (DOR) opioid receptor (Homo sapiens, UniProt P41143). Description: CNS receptor inhibition, Delta opioid receptor. The class given is binding. The procedure: as §1
A further series deals with κ (KOR) opioid receptor (Homo sapiens, UniProt P41145). Kind of series: CNS receptor inhibition, Kappa opioid receptor. The class given is binding. How it is done:
as §1

The test system of another series is MDA-MB-231. Description: Cytotoxicity in cancer cell line MDA-MB-231. The class given is cell-based. The source says: (§2) Further cytotoxicity studies show potential for efficacy as […]. Table 2, below, provides IC50 data relating to both a cancer cell line and E. coli minimum inhibitory concentration (MIC).
A further series relates to E. Coli. Kind of series: E. coli minimum inhibitory concentration. The format is cell-based.
From the text: as §2

The subject of another series is bEnd.3 cells. Kind of series: Blood-brain barrier membrane permeability in in-vitro monolayer of bEnd.3 cells. To be noted: in 30 minutes. The class given is in vitro ADME. An excerpt: FIG. 4 provides permeability data for the blood-brain barrier (BBB) of various compounds, including gliotoxin and Formula 1b. Membrane permeability increases linearly as a function of time.

The next series deals with HUVEC cells. Kind of series: Angiogenesis study, tube formation in HUVEC. The class given is cell-based. To be noted: 100 nM of drug treatment. How it is done:
Angiogenesis studies were performed using HUVEC cells (see FIGS. 6A-6C). Tube formation in HUVEC in presence of 100 nM of drug treatment.

The next series deals with CNS Receptor. Description: CNS Receptor binding (profile). The procedure: as §1
The next series addresses H1 receptor (Homo sapiens, UniProt P35367). Description: CNS receptor inhibition, H1 receptor. The format is binding. How it is done: as §1

Sequence of H1 receptor (P35367 whole entry): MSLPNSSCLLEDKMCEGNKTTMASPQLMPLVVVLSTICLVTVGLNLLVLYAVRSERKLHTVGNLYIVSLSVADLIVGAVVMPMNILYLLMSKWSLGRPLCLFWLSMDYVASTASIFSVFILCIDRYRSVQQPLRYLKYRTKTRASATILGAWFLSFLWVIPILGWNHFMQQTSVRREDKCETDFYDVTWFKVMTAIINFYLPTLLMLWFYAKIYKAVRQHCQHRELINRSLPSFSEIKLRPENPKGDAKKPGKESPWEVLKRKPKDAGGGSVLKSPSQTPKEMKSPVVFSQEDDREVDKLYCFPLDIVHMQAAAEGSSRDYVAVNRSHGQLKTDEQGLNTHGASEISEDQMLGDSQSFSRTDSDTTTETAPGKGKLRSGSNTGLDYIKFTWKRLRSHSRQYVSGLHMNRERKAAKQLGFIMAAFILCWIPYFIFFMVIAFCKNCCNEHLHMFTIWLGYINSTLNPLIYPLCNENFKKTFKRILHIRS
Sequence of κ (KOR) opioid receptor (P41145 whole entry): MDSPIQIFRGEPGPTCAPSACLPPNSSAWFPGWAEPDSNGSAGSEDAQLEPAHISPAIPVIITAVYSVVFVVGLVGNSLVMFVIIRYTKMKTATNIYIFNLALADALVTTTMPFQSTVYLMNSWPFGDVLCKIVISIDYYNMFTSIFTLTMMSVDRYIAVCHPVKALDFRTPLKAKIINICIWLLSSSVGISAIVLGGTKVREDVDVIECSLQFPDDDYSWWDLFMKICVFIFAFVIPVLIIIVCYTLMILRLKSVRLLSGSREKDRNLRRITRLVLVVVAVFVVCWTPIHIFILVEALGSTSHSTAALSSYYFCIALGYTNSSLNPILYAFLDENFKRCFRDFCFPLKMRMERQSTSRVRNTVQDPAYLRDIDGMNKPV
Sequence of σ (DOR) opioid receptor (P41143 whole entry): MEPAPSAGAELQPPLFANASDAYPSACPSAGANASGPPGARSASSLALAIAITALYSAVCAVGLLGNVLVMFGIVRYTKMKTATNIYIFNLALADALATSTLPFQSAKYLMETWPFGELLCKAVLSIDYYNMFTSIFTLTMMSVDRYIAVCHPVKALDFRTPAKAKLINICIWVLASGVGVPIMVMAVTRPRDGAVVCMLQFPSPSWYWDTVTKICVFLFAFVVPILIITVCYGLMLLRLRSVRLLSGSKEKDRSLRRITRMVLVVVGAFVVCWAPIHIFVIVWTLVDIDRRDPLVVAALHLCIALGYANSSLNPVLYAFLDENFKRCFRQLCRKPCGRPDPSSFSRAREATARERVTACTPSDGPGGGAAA
Sequence of μ (MOR) opioid receptor (P35372 whole entry): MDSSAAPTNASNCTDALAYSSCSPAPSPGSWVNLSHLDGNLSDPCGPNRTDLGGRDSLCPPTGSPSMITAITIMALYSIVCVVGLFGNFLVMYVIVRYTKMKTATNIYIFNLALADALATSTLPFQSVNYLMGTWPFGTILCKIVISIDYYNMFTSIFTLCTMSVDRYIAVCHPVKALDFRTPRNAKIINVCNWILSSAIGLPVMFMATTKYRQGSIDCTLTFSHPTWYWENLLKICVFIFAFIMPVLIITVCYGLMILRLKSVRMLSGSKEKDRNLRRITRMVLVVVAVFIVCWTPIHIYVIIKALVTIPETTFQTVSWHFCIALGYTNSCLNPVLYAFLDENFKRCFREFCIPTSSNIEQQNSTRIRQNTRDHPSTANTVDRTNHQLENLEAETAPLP

For `CCc1cccc2c1N1C(=O)CC(C)C(=O)C1C2` (stereo not drawn) [Formula 1b, 4-ethyl-8-methyl-7,8,9a,10-tetrahydropyrido[1,2-α]indole-6,9-dione], the “Inhibition (%)” value on μ (MOR) opioid receptor is 97.8%; on σ (DOR) opioid receptor, 97.4%; on κ (KOR) opioid receptor, 99.3%. In the series with MDA-MB-231, the IC50 – broadly, the concentration at which inhibition is half-maximal – was more than 100000 nM. In the series on E. Coli, the “E. Coli MIC” value was “Not Active”. The “ability to cross the BBB” value with bEnd.3 cells came to 80%. For the same molecule, the “Inhibition of tube formation” value in the series on HUVEC cells is on record as “no inhibition was observed”. The “CNS Receptor binding” value with CNS Receptor is “Opioid Antagonist”.

`CN1C(=O)[C@]23CC4=CC=C[C@H](O)[C@H]4N2C(=O)[C@@]1(CO)SS3` [Gliotoxin, reference compound]: the “CNS activity, inhibition of the H1 receptor (FIG. 7)” value on H1 receptor is “partial inhibition”. Further, on H1 receptor (H1), the “Inhibition (%)” value was 61%. In the series with MDA-MB-231 (Homo sapiens), it took 1400 nM to reach half-maximal inhibition (IC50). Also, it took 32 µg/mL (≈ 98 µM) to inhibit growth against E. Coli (Escherichia coli) (MIC). In the series with HUVEC cells, the “Inhibition of tube formation” value is on record as “Inhibition of tube formation was observed”. Besides, the “CNS Receptor binding” value with CNS Receptor is “H1 Receptor Antagonist”.
